Like-named read-outs stand apart in the source and are kept apart here.
What was measured:
hT2R7 = hT2R7 (Homo sapiens (Human), UniProt Q9NYW3); test: hT2R panel inhibition, transient HEK293 G16g44, agonist Chloroquine pH6.5 10 mM; type: cell-based; conditions: HEK293, compound at 25 μM; receptor activated to EC80 with the corresponding agonist; read-out: screening result against bitter receptor 7
Method in brief: (§1)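 Receptor activity was measured in functional assays after single-receptor transient transfection; bitter agonists were used at their EC80 levels. A decrease in that activity when the test compound was added was taken as inhibition.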

hT2R54 = test: hT2R panel inhibition, transient HEK293 G16g44, agonist Ranitidine 5 mM; type: cell-based, human; conditions: compound at 25 μM; receptor activated to EC80 with the corresponding agonist
Method in brief: as §1

hT2R75 = hT2R75 (Homo sapiens (Human), UniProt P59540); test: hT2R panel inhibition, transient HEK293 G16g44, agonist Strychnine 1 μM; type: cell-based; conditions: HEK293, read-out: screening result against bitter receptor 75, compound at 25 μM; receptor activated to EC80 with the corresponding agonist
hT2R61 = hT2R61 (Homo sapiens (Human), UniProt P59537); test: hT2R panel inhibition, transient HEK293 G16g44, agonist Aristolochic Acid 25 nM; type: cell-based; conditions: HEK293, compound at 25 μM; receptor activated to EC80 with the corresponding agonist; read-out: screening result against bitter receptor 61
Method in brief: as §1

hT2R44 = test: hT2R panel inhibition, transient HEK293 G16g44, agonist Denatonium 0.5 μM; type: cell-based, human; conditions: compound at 25 μM; receptor activated to EC80 with the corresponding agonist
Method in brief: as §1

hT2R16 = hT2R16 (Homo sapiens (Human), UniProt Q9NYV7); test: hT2R panel inhibition, transient HEK293 G16g44, agonist Salicin 1 mM; type: cell-based; conditions: HEK293, compound at 25 μM; receptor activated to EC80 with the corresponding agonist; read-out: screening result against bitter receptor 16
Method in brief: as §1

hT2R65 = test: hT2R panel inhibition, transient HEK293 G16g44, agonist Oleuropein 1 mM; type: cell-based, human; conditions: compound at 25 μM; receptor activated to EC80 with the corresponding agonist
Method in brief: as §1

hT2R3 = hT2R3 (Homo sapiens (Human), UniProt Q9NYW6); test: hT2R panel inhibition, transient HEK293 G16g44, agonist Chloroquine pH6.5 50 μM; type: cell-based; conditions: receptor activated to EC80 with the corresponding agonist; for inhibition at 25 µM: HEK293, compound at 25 μM, read-out: screening result against bitter receptor 3
Method in brief: as §1

hT2R63 = test: hT2R panel inhibition, transient HEK293 G16g44, agonist Caffeine 1 mM or Andrographolide 100 μM; type: cell-based, human; conditions: compound at 25 μM; receptor activated to EC80 with the corresponding agonist
Method in brief: as §1

hT2R14 [1] = target: T1, hT2R14 (Homo sapiens (Human), UniProt Q9NYV8); test: hT2R panel inhibition, transient HEK293 G16g44, agonist Aristolochic Acid 2 μM; type: cell-based; conditions: HEK293, compound at 25 μM; receptor activated to EC80 with the corresponding agonist; read-out: screening result against bitter receptor 14
Method in brief: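 Each hT2R was transiently transfected into HEK293 cells stably expressing G16g44 and assayed functionally for inhibition of agonist response. Agonists were applied at EC80: andrographolide at 0.5 mM for hT2R8 and aristolochic acid at 2 μM for hT2R14.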

hT2R4 = hT2R4 (Homo sapiens (Human), UniProt Q9NYW5); test: hT2R panel inhibition, transient HEK293 G16g44, agonist Chloroquine pH6.5 5 mM; type: cell-based; conditions: HEK293, compound at 25 μM; receptor activated to EC80 with the corresponding agonist; class symbols; read-out: screening result against bitter receptor 4
Method in brief: as §1

hT2R71 = hT2R71 (Homo sapiens (Human), UniProt P59536); test: hT2R panel inhibition, transient HEK293 G16g44, agonist Picric Acid 10 μM; type: cell-based; conditions: receptor activated to EC80 with the corresponding agonist; for inhibition at 25 µM: HEK293, compound at 25 μM, read-out: screening result against bitter receptor 71
Method in brief: as §1

hT2R51 = hT2R51 (Homo sapiens (Human), UniProt P59533); test: hT2R panel inhibition, transient HEK293 G16g44, agonist Prop 2.5 μM; type: cell-based; conditions: receptor activated to EC80 with the corresponding agonist; for inhibition at 25 µM: HEK293, compound at 25 μM, read-out: screening result against bitter receptor 51
Method in brief: as §1

hT2R64 = hT2R64 (Homo sapiens (Human), UniProt P59538); test: hT2R panel inhibition, transient HEK293 G16g44, agonist Aristolochic Acid 1 μM; type: cell-based; conditions: HEK293, compound at 25 μM; receptor activated to EC80 with the corresponding agonist; read-out: screening result against bitter receptor 64
Method in brief: as §1

hT2R10 = hT2R10 (Homo sapiens (Human), UniProt Q9NYW0); test: hT2R panel inhibition, transient HEK293 G16g44, agonist Strychnine 50 μM; type: cell-based; conditions: receptor activated to EC80 with the corresponding agonist; for inhibition at 25 µM: HEK293, read-out: screening result against bitter receptor 10, compound at 25 μM
hT2R14 [2] = target: T1, hT2R14; test: hT2R14 antagonist high-throughput FLIPR assay, stable cell line with G16g44, agonist aristolochic acid; type: cell-based
Method in brief: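 HEK293 cells stably expressing hT2R14 with chimeric G16g44 were stimulated with aristolochic acid (3 μM), giving 70-80% of maximal receptor activity. Test compounds were added together with the agonist, and antagonism was read as fluorescent calcium signal on FLIPR.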

hT2R55 = test: hT2R panel inhibition, transient HEK293 G16g44, agonist Cinchonine 150 μM; type: cell-based, human; conditions: compound at 25 μM; receptor activated to EC80 with the corresponding agonist
Method in brief: as §1

hT2R5 = hT2R5 (Homo sapiens (Human), UniProt Q9NYW4); test: hT2R panel inhibition, transient HEK293 G16g44, agonist Picoline 10 mM; type: cell-based; conditions: HEK293, compound at 25 μM; receptor activated to EC80 with the corresponding agonist; read-out: screening result against bitter receptor 5
Method in brief: as §1

hT2R67 = test: hT2R panel inhibition, transient HEK293 G16g44, agonist Andrographolide 5 μM; type: cell-based, human; conditions: compound at 25 μM; receptor activated to EC80 with the corresponding agonist
Method in brief: as §1

hT2R8 [3] = target: T2, hT2R8 (Homo sapiens (Human), UniProt Q9NYW2); test: hT2R panel inhibition, transient HEK293 G16g44, agonist Andrographolide 0.5 mM; type: cell-based; conditions: HEK293, compound at 25 μM; receptor activated to EC80 with the corresponding agonist; read-out: screening result against bitter receptor 8
Method: Specifically, in order to evaluate the inhibitory selectivity of the Compound C compound, this compound was tested against 22 human T2Rs which were deorphaned by Senomyx. These receptors and the bitter ligands that activate these human T2Rs are reported in earlier patent applications which are incorporated by reference herein. These 22 human T2Rs are hT2R1, 3, 4, 5, 7, 8, 9, 10, 13, 14, 16, 44, 51, 54, 55, 61, 63, 64, 65, 67, 71 and 75. The amino acid and nucleic acid sequences of all of these T2Rs may be found in these earlier patent applications. These human T2Rs were each individually transiently transfected into HEK293 cells that stably express the promiscuous G protein G16g44 and functional assays were effected using these receptors as disclosed in these same patent applications. […] The ligands were used at EC80 concentration levels. The list of bitter ligands utilized and the tested ligand concentrations are contained in Table 5 of this example.

[4] = test system: bitter taste of instant coffee; test: 2-alternative forced choice taste test, instant coffee with hT2R8 antagonists; type: in vivo, human; conditions: antagonist 5 μM
Method: Taste tests were performed with hT2R8 antagonists in instant coffee using a 2-alternative forced choice method with a taste panel of 15-20 panelists. Coffee samples with the antagonists were given to the taste panelists together with the same sample without antagonists, the panelists were asked to identify the bitterer sample within the pair.

hT2R8 [5] = target: T2, hT2R8; test: hT2R8 antagonist high-throughput FLIPR assay, stable cell line with G16g44, agonist andrographolide; type: cell-based; conditions: read-out: IC50 on hT2R8 bitter receptor
Method in brief: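 HEK293 cells stably co-expressing hT2R8 and chimeric G16g44, read on FLIPR. Test compounds added together with andrographolide (200 μM), which drives the receptor to 70–80% of maximal activity; antagonism seen as reduced agonist response.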

T2 sequence (Q9NYW2 whole entry): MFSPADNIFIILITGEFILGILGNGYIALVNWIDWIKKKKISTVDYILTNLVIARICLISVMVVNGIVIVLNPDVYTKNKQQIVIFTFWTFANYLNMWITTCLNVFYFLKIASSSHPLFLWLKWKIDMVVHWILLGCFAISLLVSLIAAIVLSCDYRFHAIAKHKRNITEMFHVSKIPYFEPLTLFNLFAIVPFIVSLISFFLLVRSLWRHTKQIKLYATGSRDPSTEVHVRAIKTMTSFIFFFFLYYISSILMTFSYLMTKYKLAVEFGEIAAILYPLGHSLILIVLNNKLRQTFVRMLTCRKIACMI
Sequence of hT2R64 (P59538 whole entry): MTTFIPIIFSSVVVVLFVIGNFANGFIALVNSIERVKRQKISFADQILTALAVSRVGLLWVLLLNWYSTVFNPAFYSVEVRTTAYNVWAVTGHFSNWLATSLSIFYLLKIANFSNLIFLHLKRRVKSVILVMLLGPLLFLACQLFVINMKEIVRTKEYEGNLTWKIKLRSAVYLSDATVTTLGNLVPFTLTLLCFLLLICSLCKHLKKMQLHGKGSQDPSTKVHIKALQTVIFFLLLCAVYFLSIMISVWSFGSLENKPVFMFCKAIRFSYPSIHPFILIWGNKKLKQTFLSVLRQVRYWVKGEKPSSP
T1 sequence (Q9NYV8 whole entry): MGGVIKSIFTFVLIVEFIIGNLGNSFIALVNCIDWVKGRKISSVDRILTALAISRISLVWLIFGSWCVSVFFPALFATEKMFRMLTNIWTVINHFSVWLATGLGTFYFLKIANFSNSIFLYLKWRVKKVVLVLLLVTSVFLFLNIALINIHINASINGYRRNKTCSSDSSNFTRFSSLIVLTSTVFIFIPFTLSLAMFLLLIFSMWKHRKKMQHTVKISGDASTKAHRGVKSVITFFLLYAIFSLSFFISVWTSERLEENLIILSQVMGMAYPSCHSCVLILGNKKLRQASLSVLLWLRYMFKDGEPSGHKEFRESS
Sequence of hT2R5 (Q9NYW4 whole entry): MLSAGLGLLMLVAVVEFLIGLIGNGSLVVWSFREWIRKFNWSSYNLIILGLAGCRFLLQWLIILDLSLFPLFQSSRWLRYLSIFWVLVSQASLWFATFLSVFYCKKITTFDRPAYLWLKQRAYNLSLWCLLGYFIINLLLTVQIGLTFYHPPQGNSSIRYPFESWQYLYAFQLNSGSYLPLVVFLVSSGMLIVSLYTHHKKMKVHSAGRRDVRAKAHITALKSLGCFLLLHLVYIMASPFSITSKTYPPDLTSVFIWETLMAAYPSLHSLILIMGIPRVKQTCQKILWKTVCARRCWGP
Sequence of hT2R7 (Q9NYW3 whole entry): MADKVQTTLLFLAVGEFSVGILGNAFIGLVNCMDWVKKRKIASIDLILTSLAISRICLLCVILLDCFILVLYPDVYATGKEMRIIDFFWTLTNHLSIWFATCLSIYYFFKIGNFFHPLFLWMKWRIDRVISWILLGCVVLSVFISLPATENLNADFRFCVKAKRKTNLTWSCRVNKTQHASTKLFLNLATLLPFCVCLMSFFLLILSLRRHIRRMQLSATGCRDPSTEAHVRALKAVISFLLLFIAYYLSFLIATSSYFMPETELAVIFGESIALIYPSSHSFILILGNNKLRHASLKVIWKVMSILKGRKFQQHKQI
Sequence of hT2R3 (Q9NYW6 whole entry): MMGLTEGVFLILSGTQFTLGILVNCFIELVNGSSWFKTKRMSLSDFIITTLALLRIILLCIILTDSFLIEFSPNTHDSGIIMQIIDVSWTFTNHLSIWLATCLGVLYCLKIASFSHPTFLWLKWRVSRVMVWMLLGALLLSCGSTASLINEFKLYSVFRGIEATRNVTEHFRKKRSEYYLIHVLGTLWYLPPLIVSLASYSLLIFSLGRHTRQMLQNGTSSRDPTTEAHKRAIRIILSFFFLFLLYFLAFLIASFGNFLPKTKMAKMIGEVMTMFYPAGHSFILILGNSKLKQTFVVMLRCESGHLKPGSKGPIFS
Sequence of hT2R10 (Q9NYW0 whole entry): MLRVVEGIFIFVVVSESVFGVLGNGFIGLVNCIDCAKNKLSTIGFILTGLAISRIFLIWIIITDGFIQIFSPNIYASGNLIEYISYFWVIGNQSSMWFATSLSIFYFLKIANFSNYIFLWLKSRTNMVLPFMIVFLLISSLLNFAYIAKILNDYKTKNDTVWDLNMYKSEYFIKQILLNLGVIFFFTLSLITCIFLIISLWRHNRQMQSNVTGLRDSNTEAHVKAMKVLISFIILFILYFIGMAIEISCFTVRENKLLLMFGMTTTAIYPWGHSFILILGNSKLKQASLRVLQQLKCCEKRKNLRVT
Sequence of hT2R61 (P59537 whole entry): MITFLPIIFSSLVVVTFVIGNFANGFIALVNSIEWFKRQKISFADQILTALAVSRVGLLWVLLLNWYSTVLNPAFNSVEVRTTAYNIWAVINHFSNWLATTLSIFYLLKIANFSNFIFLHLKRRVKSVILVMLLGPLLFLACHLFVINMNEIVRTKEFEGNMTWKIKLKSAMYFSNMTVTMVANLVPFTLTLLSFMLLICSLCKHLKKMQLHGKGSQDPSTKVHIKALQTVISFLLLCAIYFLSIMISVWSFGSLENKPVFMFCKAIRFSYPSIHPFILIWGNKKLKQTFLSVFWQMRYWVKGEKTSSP
Sequence of hT2R51 (P59533 whole entry): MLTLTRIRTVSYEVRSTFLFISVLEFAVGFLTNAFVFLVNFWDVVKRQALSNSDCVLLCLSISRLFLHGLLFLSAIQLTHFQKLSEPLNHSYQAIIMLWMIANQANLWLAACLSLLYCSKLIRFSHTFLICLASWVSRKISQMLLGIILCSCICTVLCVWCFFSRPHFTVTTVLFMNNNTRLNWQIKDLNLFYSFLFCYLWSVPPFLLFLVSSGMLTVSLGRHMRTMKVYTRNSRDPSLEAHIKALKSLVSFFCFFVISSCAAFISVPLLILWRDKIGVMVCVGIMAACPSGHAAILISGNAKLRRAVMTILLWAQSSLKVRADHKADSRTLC
Sequence of hT2R71 (P59536 whole entry): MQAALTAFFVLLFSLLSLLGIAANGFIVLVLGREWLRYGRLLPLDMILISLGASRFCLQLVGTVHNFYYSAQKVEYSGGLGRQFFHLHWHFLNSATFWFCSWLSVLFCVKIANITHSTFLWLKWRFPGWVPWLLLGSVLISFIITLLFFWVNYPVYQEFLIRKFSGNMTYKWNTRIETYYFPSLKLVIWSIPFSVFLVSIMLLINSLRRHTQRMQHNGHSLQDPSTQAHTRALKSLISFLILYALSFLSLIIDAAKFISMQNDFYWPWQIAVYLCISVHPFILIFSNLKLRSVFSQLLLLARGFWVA
Sequence of hT2R16 (Q9NYV7 whole entry): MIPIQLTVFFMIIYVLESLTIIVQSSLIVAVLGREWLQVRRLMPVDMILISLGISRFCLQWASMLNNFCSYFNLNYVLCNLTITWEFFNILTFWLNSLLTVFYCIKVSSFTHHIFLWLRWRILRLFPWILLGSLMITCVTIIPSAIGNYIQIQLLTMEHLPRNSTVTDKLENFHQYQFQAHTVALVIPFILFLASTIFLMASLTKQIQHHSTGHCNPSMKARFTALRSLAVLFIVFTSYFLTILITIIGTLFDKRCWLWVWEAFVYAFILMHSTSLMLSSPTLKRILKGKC
Sequence of hT2R75 (P59540 whole entry): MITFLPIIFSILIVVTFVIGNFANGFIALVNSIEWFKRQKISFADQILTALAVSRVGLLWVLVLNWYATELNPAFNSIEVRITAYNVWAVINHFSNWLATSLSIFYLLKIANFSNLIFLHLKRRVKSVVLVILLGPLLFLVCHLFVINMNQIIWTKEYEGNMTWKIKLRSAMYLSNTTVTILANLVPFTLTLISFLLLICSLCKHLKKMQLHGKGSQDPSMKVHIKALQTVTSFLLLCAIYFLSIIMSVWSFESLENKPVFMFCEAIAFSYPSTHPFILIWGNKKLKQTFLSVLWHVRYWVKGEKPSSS
Sequence of hT2R4 (Q9NYW5 whole entry): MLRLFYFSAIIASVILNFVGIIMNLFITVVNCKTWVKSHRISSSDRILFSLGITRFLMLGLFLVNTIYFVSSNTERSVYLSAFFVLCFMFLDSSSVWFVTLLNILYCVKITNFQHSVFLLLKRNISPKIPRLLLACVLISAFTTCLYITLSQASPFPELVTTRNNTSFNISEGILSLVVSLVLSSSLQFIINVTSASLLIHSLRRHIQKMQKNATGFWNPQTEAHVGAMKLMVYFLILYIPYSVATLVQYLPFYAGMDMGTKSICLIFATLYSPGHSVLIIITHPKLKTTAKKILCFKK

Compound | inhibition at 25 µM (hT2R7) | inhibition at 25 µM (hT2R61) | screening result against bitter receptor 44 (hT2R44) | inhibition at 25 µM (hT2R3) | screening result against bitter receptor 63 (hT2R63) | inhibition at 25 µM (hT2R14 [1]) | inhibition at 25 µM (hT2R71) | inhibition at 25 µM (hT2R64) | screening result against bitter receptor 55 (hT2R55) | inhibition at 25 µM (hT2R5) | screening result against bitter receptor 67 (hT2R67) | inhibition at 25 µM (hT2R8 [3]) | Selected as bitterer: With antagonists [4] | Selected as bitterer: Without antagonists [4] | IC50 (hT2R8 [5]) | further results
COc1ccc(CN(Cc2ccco2)S(=O)(=O)c2ccc(C(=O)O)cc2)cc1 [Example 5-2, 4-(N-(furan-2-ylmethyl)-N-(4-methoxybenzyl)sulfamoyl)benzoic acid] | 40 to 60% | > 80% | +++ (60% to 80% inhibition = +++) | 40 to 60% | ++++ (80% or greater inhibition = ++++) | > 80% | 60 to 80% | 60 to 80% | ++++ (80% or greater inhibition = ++++) | 20 to 40% | + (20% to 40% inhibition = +) | – | – | – | – | screening result against bitter receptor 54 (hT2R54): + (20% to 40% inhibition = +); melting point: 151 to 152 °C; inhibition at 25 µM (hT2R75): 20 to 40%; inhibition at 25 µM (hT2R16): 60 to 80%; screening result against bitter receptor 65 (hT2R65): + (20% to 40% inhibition = +); inhibition at 25 µM (hT2R4): 20 to 40%; inhibition at 25 µM (hT2R51): 40 to 60%; inhibition at 25 µM (hT2R10): 60 to 80%; IC50 (hT2R14 [2]; read-out: IC50 on hT2R14 bitter receptor): 0.59 µM
COc1ccc(CN(Cc2ccsc2)S(=O)(=O)c2ccc(C(=O)O)cc2)cc1 [Example 5-62, 4-(N-(4-methoxybenzyl)-N-(thiophen-3-ylmethyl)sulfamoyl)benzoic acid] | 20 to 40% | 40 to 60% | – | 20 to 40% | ++++ (80% or greater inhibition = ++++) | – | 20 to 40% | 40 to 60% | +++ (60% to 80% inhibition = +++) | 20 to 40% | + (20% to 40% inhibition = +) | 20 to 40% | – | – | – | –
COc1ccc(CN(Cc2ccc(F)cc2)S(=O)(=O)c2ccc(C(=O)O)cc2)cc1 [Example 5-69, 4-(N-(4-fluorobenzyl)-N-(4-methoxybenzyl)sulfamoyl)benzoic acid] | – | 60 to 80% | + (20% to 40% inhibition = +) | – | ++++ (80% or greater inhibition = ++++) | > 80% | – | 40 to 60% | +++ (60% to 80% inhibition = +++) | 20 to 40% | – | 20 to 40% | – | – | – | inhibition at 25 µM (hT2R75): 20 to 40%; screening result against bitter receptor 3 (hT2R3; compound at 25 μM): + (20% to 40% inhibition = +); screening result against bitter receptor 71 (hT2R71; compound at 25 μM): + (20% to 40% inhibition = +); screening result against bitter receptor 51 (hT2R51; compound at 25 μM): ++ (40% to 60% inhibition = ++); screening result against bitter receptor 10 (hT2R10; compound at 25 μM): + (20% to 40% inhibition = +); IC50 (hT2R14 [2]; Table C, read-out: hT2R14 IC50): 8.28 µM
O=C(O)c1ccc(S(=O)(=O)N(Cc2ccccc2)Cc2ccc(Cl)cc2)cc1 [Example 5-77, 4-(N-benzyl-N-(4-chlorobenzyl)sulfamoyl)benzoic acid] | 20 to 40% | 60 to 80% | + (20% to 40% inhibition = +) | 40 to 60% | +++ (60% to 80% inhibition = +++) | > 80% | 40 to 60% | 40 to 60% | ++ (40% to 60% inhibition = ++) | 20 to 40% | + (20% to 40% inhibition = +) | 20 to 40% | – | – | – | screening result against bitter receptor 54 (hT2R54): ++ (40% to 60% inhibition = ++); inhibition at 25 µM (hT2R16): 20 to 40%; screening result against bitter receptor 65 (hT2R65): ++ (40% to 60% inhibition = ++); inhibition at 25 µM (hT2R51): 40 to 60%; inhibition at 25 µM (hT2R10): 20 to 40%
Cc1noc(C)c1Cn1cc(N2C(=O)N(Cc3cccc(O)c3)C(C)(C)C2=O)cn1 [Example 12-1, 3-(1-((3,5-dimethylisoxazol-4-yl)methyl)-1H-pyrazol-4-yl)-1-(3-hydroxybenzyl)-5,5-dimethylimidazolidine-2,4-dione] | – | – | – | – | – | – | – | – | – | – | – | – | 2 | 14 | 0.05 µM | –
COc1ccc(CN2C(=O)N(c3cnn(Cc4c(C)noc4C)c3)C(=O)C2(C)C)cc1O [Example 12-2, 3-(1-((3,5-dimethylisoxazol-4-yl)methyl)-1H-pyrazol-4-yl)-1-(3-hydroxy-4-methoxybenzyl)-5,5-dimethylimidazolidine-2,4-dione] | – | – | – | – | – | – | – | – | – | – | – | – | 2 | 14 | 0.06 µM | –
COc1cc(O)cc(CN2C(=O)N(c3cnn(Cc4c(C)noc4C)c3)C(=O)C2(C)C)c1 [Example 12-17, 3-(1-((3,5-dimethylisoxazol-4-yl)methyl)-1H-pyrazol-4-yl)-1-(3-hydroxy-5-methoxybenzyl)-5,5-dimethylimidazolidine-2,4-dione] | – | – | – | – | – | – | – | – | – | – | – | – | 3 | 17 | 0.02 µM | melting point: 72 to 74 °C
Cc1noc(C)c1Cn1cc(N2C(=O)N(Cc3cccc(CO)c3)C(C)(C)C2=O)cn1 [Example 12-34, 3-(1-((3,5-dimethylisoxazol-4-yl)methyl)-1H-pyrazol-4-yl)-1-(3-(hydroxymethyl)benzyl)-5,5-dimethylimidazolidine-2,4-dione] | – | – | – | – | – | – | – | – | – | – | – | – | 3 | 13 | 0.11 µM | –

Source: patent US9247759B2, “Identification of human T2R receptors that respond to bitter compounds that elicit the bitter taste in compositions, and the use thereof in assays to identify compounds that inhibit (block) bitter taste in compositions and use thereof” (SENOMYX, INC., priority 2007, dated 2016)
